Laboratory results as given in ChEMBL document CHEMBL1201862, “PubChem BioAssay data set” (2004).
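1) Cells in 96-well plates. 2) Compound, 48 h, 5 concentrations. 3) Linear interpolation between surrounding doses. 4) Unreached endpoint = highest concentration. The concentration for 50% growth inhibition is given as GI50.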 Active and inactive are the calls of the source. Cut-off read from the data, not from the text of the source: active = GI50 up to about 1.1 µM and inactive = higher. Where a SMILES comes first, the peptide text is derived from it. [ ]: non-standard residue; d: D form. The star is where a group is joined. ξ: configuration not given here. NMeF = CN[C@@H](Cc1ccccc1)C(=O)O; NMeV = CN[C@H](C(=O)O)C(C)C; ξNMeN = CNC(CC(N)=O)C(=O)O; NMeA = CN[C@@H](C)C(=O)O; ξNMeV = CNC(C(=O)O)C(C)C; Boc = CC(C)(C)OC(=O)*

Key:
Assay in all cases: growth of human tumour cells (NCI), 48 h
SK-MEL-28 = test system: SK-MEL-28
786-0 = test system: 786-0
HCT-15 = test system: HCT-15
OVCAR-3 = test system: OVCAR-3
HCT-116 = test system: HCT-116
SF-539 = test system: SF-539
HOP-62 = test system: HOP-62
COLO 205 = test system: COLO 205
MDA-MB-231 = test system: MDA-MB-231
PC-3 = test system: PC-3
IGROV-1 = test system: IGROV-1
UACC-257 = test system: UACC-257
SK-MEL-5 = test system: SK-MEL-5
NCI-H23 = test system: NCI-H23
HCC 2998 = test system: HCC 2998
OVCAR-4 = test system: OVCAR-4
SK-MEL-2 = test system: SK-MEL-2
NCI/ADR-RES = test system: NCI/ADR-RES
MCF7 = test system: MCF7
RPMI-8226 = test system: RPMI-8226

| SMILES | GI50 (SK-MEL-28) | GI50 (786-0) | GI50 (HCT-15) [µM] | GI50 (OVCAR-3) | GI50 (HCT-116) | GI50 (SF-539) | GI50 (HOP-62) | GI50 (COLO 205) | GI50 (MDA-MB-231) | GI50 (PC-3) | GI50 (IGROV-1) | GI50 (UACC-257) | GI50 (SK-MEL-5) | GI50 (NCI-H23) | GI50 (HCC 2998) | GI50 (OVCAR-4) | GI50 (SK-MEL-2) | GI50 (NCI/ADR-RES) | GI50 (MCF7) | GI50 (RPMI-8226) |
| --- | --- | --- | --- | --- | --- | --- | --- | --- | --- | --- | --- | --- | --- | --- | --- | --- | --- | --- | --- | --- |
| CC1(C)SC2C(C(=O)O)N=C(Cc3ccccc3)N2C1C(=O)O (stereo not given) | 52.4 µM (inactive) | 19.8 µM (inactive) | 81.5 | 49 µM (inactive) | 24.9 µM (inactive) | 30.8 µM (inactive) | 32.1 µM (inactive) | > 100 µM (inactive) | 43.3 µM (inactive) | 42.7 µM (inactive) | > 100 µM (inactive) | 21.9 µM (inactive) | > 100 µM (inactive) | 86.3 µM (inactive) | 25.3 µM (inactive) | 92.3 µM (inactive) | > 100 µM (inactive) | 33.9 µM (inactive) | 34.2 µM (inactive) | 46.8 µM (inactive) |
| O=[N+]([O-])c1cc(C2(N3CCCCC3)CCCCC2)sc1Br | 5.41 µM (inactive) | 3.94 µM (inactive) | 5.02 | 2.72 µM (inactive) | 11.7 µM (inactive) | 2.52 µM (inactive) | 6 µM (inactive) | 3.82 µM (inactive) | 11 µM (inactive) | 4.06 µM (inactive) | 11.4 µM (inactive) | 2.04 µM (inactive) | 5.04 µM (inactive) | 11.9 µM (inactive) | 1.74 µM (inactive) | 13 µM (inactive) | 7.06 µM (inactive) | 3.09 µM (inactive) | 2.83 µM (inactive) | 1.74 µM (inactive) |
| S=C(N/N=C/c1ccccn1)Nc1ccc(Cl)cc1 | 0.413 µM (active) | 0.0601 µM (active) | 0.0398 | < 0.01 µM (active) | 0.0449 µM (active) | 0.364 µM (active) | 0.181 µM (active) | < 0.0175 µM (active) | 0.0542 µM (active) | 0.0424 µM (active) | 0.0933 µM (active) | 0.04 µM (active) | 0.11 µM (active) | 0.104 µM (active) | 0.59 µM (active) | 0.689 µM (active) | 2.14 µM (inactive) | 0.0366 µM (active) | 0.0489 µM (active) | 0.134 µM (active) |
| Cc1cc(Cl)nc2nc(Cl)c(N)cc12 | 2.56 µM (inactive) | 2.86 µM (inactive) | 1.9 | 1.87 µM (inactive) | 2.48 µM (inactive) | 4.71 µM (inactive) | 6.76 µM (inactive) | 2.06 µM (inactive) | 3.48 µM (inactive) | 12.1 µM (inactive) | 7.87 µM (inactive) | 1.87 µM (inactive) | 10.9 µM (inactive) | 7.24 µM (inactive) | 1.86 µM (inactive) | 2.64 µM (inactive) | 14.9 µM (inactive) | 14.8 µM (inactive) | 1.63 µM (inactive) | 2.26 µM (inactive) |
| CC(=O)OC1COC(Nc2nc(NCc3ccccc3)n(C)c(=O)c2N=O)C(OC(C)=O)C1OC(C)=O (stereo not given) | > 10 µM (inactive) | > 10 µM (inactive) | > 10 | > 10 µM (inactive) | > 10 µM (inactive) | > 10 µM (inactive) | > 10 µM (inactive) | > 10 µM (inactive) | > 10 µM (inactive) | > 10 µM (inactive) | > 10 µM (inactive) | > 10 µM (inactive) | > 10 µM (inactive) | > 10 µM (inactive) | > 10 µM (inactive) | > 10 µM (inactive) | > 10 µM (inactive) | > 10 µM (inactive) | > 10 µM (inactive) | > 10 µM (inactive) |
| COCCOC1=C(Cl)C(=O)c2c(O)ccc(O)c2C1=O | 2.27 µM (inactive) | 1.62 µM (inactive) | 1.21 | 1.09 µM (active) | 0.979 µM (active) | 2.16 µM (inactive) | 3.33 µM (inactive) | 0.838 µM (active) | 1.41 µM (inactive) | 4.62 µM (inactive) | 3.08 µM (inactive) | 1.96 µM (inactive) | 1.95 µM (inactive) | 2.25 µM (inactive) | 8.2 µM (inactive) | 1.94 µM (inactive) | 5.98 µM (inactive) | 2.84 µM (inactive) | 1.21 µM (inactive) | 0.741 µM (active) |
| COc1ccc(N[C@H](CSc2ccc(C)cc2)c2ccc(F)cc2)cc1 | > 100 µM (inactive) | > 100 µM (inactive) | 65.5 | > 100 µM (inactive) | 45.8 µM (inactive) | > 100 µM (inactive) | > 100 µM (inactive) | > 100 µM (inactive) | > 100 µM (inactive) | > 100 µM (inactive) | > 100 µM (inactive) | 40 µM (inactive) | 57.3 µM (inactive) | 39.3 µM (inactive) | > 100 µM (inactive) | 67.5 µM (inactive) | > 100 µM (inactive) | > 100 µM (inactive) | 61.8 µM (inactive) | 23.9 µM (inactive) |
| C#Cc1nc(N)c2ncn(C3OC(COS(N)(=O)=O)C(O)C3O)c2n1 (stereo not given) | 0.0374 µM (active) | 0.0367 µM (active) | < 0.0214 | < 0.0194 µM (active) | 0.0184 µM (active) | 0.0362 µM (active) | 0.146 µM (active) | 0.0277 µM (active) | < 0.0185 µM (active) | < 0.0204 µM (active) | 0.0291 µM (active) | < 0.0318 µM (active) | 0.0361 µM (active) | < 0.0164 µM (active) | < 0.01 µM (active) | < 0.0193 µM (active) | 0.0101 µM (active) | < 0.0184 µM (active) | 0.0124 µM (active) | 0.0172 µM (active) |
| N#Cc1c2ccc([N+](=O)[O-])cc2c(=O)n2c1[nH]c1ccc(C(F)(F)F)cc12 | 24.2 µM (inactive) | 40.6 µM (inactive) | 16.1 | 18.2 µM (inactive) | 10.1 µM (inactive) | > 100 µM (inactive) | 26.9 µM (inactive) | 16.9 µM (inactive) | 22.2 µM (inactive) | > 38.2 µM (inactive) | 34.2 µM (inactive) | > 88.7 µM (inactive) | 29.4 µM (inactive) | 20.1 µM (inactive) | 15.2 µM (inactive) | 24.8 µM (inactive) | > 64.7 µM (inactive) | 23.2 µM (inactive) | 63.4 µM (inactive) | 4.48 µM (inactive) |
| COC(=O)[C@H](C)N(C)C(=O)C(CC(N)=O)N(C)C(=O)[C@H](Cc1ccccc1)N(C)C(=O)[C@@H]1CCCN1C(=O)[C@H](C(C)C)N(C)C(=O)C(C(C)C)N(C)C(=O)[C@@H](NC(=O)OC(C)(C)C)C(C)C (stereo not given in full) (Boc-V[ξNMeV][NMeV]P[NMeF][ξNMeN][NMeA]-OMe) | > 50 µM (inactive) | > 50 µM (inactive) | > 75 | > 50 µM (inactive) | > 50 µM (inactive) | > 50 µM (inactive) | > 50 µM (inactive) | > 50 µM (inactive) | > 50 µM (inactive) | > 50 µM (inactive) | > 50 µM (inactive) | > 50 µM (inactive) | > 50 µM (inactive) | > 50 µM (inactive) | > 50 µM (inactive) | 38.5 µM (inactive) | > 50 µM (inactive) | > 50 µM (inactive) | > 50 µM (inactive) | > 5 µM (inactive) |
